Experimental data as given in patent publication US6663859B2, “Compositions for enhancing the immune response” (Bioenergy, Inc., priority 2000, dated 2003).

Columns and labels:
[1] = as much as 20 gm; cited from earlier work
[2] = Viability of HL-60 cells (trypan dye exclusion); format: cell-based, human; conditions: human, HL-60 cells; for viability at 96 h: Table 1, 96 h incubation, RA 1.0 μmol/L, ribose 10 mmol/L
Text: (§1) For the in vitro studies, HL-60 cells (American Type Culture Collection, Manassas, Va.), an immortal human lymphocyte cell line, at approximately passage twenty were maintained between 2.0×10^5 cells/ml in RPMI 1640 medium containing HEPES buffer (Cellgro, Mediatech Inc., Herdon, Va.), 2 mmol/L L-glutamine (Cellgro), 1% antimycotic (Cellgro), 10% heat treated fetal bovine serum (FBS: GibcoBRL; Life Technologies, Baltimore, Md.), and 0.1% gentamicin (GibcoBRL).
(§2) Experimental flasks were initiated at a concentration of 2.5×10^5 cells/ml. Differentiation of HL-60 cells was induced using all-trans retinoic acid (RA) prepared in 95% ethanol. RA was added to flasks at a concentration of 1.0 μmol/L such that the ethanol concentration added to the flask was less than 0.1%. D-Ribose preparations were made by dissolving powdered ribose (Bioenergy, Minneapolis, Minn.) in RPMI medium followed by sterile filtration.
(§3) The specificity of ribose, time and dose response was examined. The doses of ribose were 1, 5, 10, 25 and 50 mmol/L. In experiments in which one concentration of ribose was used, 10 mmol/L was the dose chosen. The effect of timing of the dose was explored by adding ribose at various times after the addition of the retinoic acid. Specificity was examined by substituting glucose, to eliminate the nonspecific effects of ribose as a substrate for glycolysis or gluconeogenesis, or change in osmolarity.
(§4) Following ninety-six hours of incubated (or as specified), cells were harvested, counted by hemocytometer and viability assessed using trypan dye exclusion. For growth and viability determinations, cells were counted three times within one experiment. Results shown were from at least three experiments. Cells were washed twice with phosphate buffered salt solution (PBS) and brought to a concentration of 2.0×10^7 cells/ml PBS.

HL-60 cells [3] = experiment: Viability of HL-60 cells (trypan dye exclusion); format: cell-based, human; conditions: summary of Table 1
Text: as §1, §2, §3, §4

thymus cells = experiment: PHA-stimulated thymus cell proliferation (tritiated thymidine); format: cell-based, mouse
Protocol: (§5) Mice are the species of choice for studies of the immune response because of the numerous nutritional and interventional studies that have been performed on mice. Details of its immune response are well studied and the inbred lines used eliminate any genetic differences. Spleens and thymus were removed from weanling Swiss ICR mice and cell suspensions prepared. The spleen and thymus cells were plated in a 96-well plate and various levels of ribose added to each well in triplicate. Phytohaemagglutinin (PHA), a T-cell stimulator, was added and the cells incubated for 48 hours. Tritiated Thymidine was then added, the cells harvested 24 hours later, and radioactivity incorporated was determined by liquid scintillation counting.

HL-60 cells [4] = experiment: Cell surface markers of maturity (CD11b, CD117) on HL-60 cells; format: cell-based, human; conditions: for expression of cell surface marker reactive with CD11b antibody: FIG. 1
Protocol: Cell samples for the detection of cell surface molecules were prepared for flow cytometry in 12×17 mm capped conical tubes. To each tube, 30 μl of PBS containing 2% FBS was added. To each of triplicate tubes, a phycoerythrin (PE) labeled antibody (PharMingen, San Diego, Calif.) was added: 20 μl of CD1 lb, 20 μl of CD117, or 20 μl of isotype control (Mouse IgG1,κ). Fifty microliters of prepared cell suspension were added to each tube, followed by gentle mixing. Tubes were placed on ice for forty-five minutes after which 2 ml of cold PBS containing 2% FBS were added to each tube. Tubes were centrifuged (Jouann, at 300×g for 10 minutes) at approximately 5° C. and supernatant removed. One ml of cold 0.5% paraformaldehyde solution was added to the pellet and tubes were vortexed immediately. Prior to analysis, fixed cells were stored in the dark at approximately 4° C. for a period no longer than one week. Samples were analyzed on FACScan. Data were analyzed using WinMDI Software (Scripps Institute, build 1301-19-200, San Diego, Calif.).
Differentiation is accompanied by changes in the surface markers CD117 and CD11b. CD117 is a tyrosine kinase receptor that is expressed in high quantities on undifferentiated cells, while CD11b is a cell adhesion molecule expressed in high quantities on differentiated cells. After harvest, aliquots of the ribose and glucose control cells were allowed to differentiate with retinoic acid as above. An ELISA assay was set up with antibodies against CD117 or CD11b.

HL-60 cells [5] = experiment: ATP determination in HL-60 cells; format: cell-based, human; conditions: HL-60 control about five μmoles per 10^9 cells
Protocol: Determination of ATP was performed using a kit purchased from Sigma Diagnostics (St. Louis, Mo.) with slight modifications. 1.0 ml of 12% trichloroacetic acid (TCA) and 1.0 ml of prepared cell suspension (1×10^7 cells/ml) were combined, vortexed and placed on ice for five minutes. Tubes were then centrifuged (Jouann, at 2000×g for 8 minutes) to obtain a clear supernatant. The following reagents were then added into vials containing 0.3 mg NADH: 1.0 ml phosphoglyceraldehyde buffered solution, 1.5 ml water, and 0.15 ml cell supernatant. Samples were distributed into two tubes. One tube was used to obtain an initial spectrophotometric absorbance at 340 nm. Fifteen μl of GAPD/PGK enzyme mixture were added to the second tube and read after ten minutes. Changes in absorbance were calculated and results were expressed as μmol of ATP per 1×10^9 cells.

weanling Swiss ICR mice = experiment: In vivo loading with ribose, planned immune response and pathogen challenge studies; set-up: species or system mouse; conditions: expected result
Text: For the in vivo studies, weanling Swiss ICR mice (three weeks old) were fed a fully nutritious, casein-based diet (AIN 93G).
This pilate study will be followed by a broader study with ten animals per groups. Popliteal lymphoproliferation, delayed-type hypersensitivity (DTH) and thymic and splenic lymphocyte proliferation will be tested. To determine popliteal lymphoproliferation, the popliteal node will be excised and weighed after antigen injection into the hind-leg footpad. DTH can be assessed by measuring ear swelling after sensitization and stimulation with the prop antigen dinitrofluorobenzene. Thymic and splenic proliferation will be determined from cells isolated from the thymus and spleen and pulsed with tritiated thymidine. These four measures are all T-cell responses.
Another group of animals will be fed as above. […] T-cell numbers, proliferation and migration, B-cell numbers, NK cell numbers and migration, neutrophil numbers, migration and oxidative burst will be determined. […] Cells will be quantitated by flow cytometry, oxidative burst will be determined spectrophotometrically and proliferation by incorporation of tritiated thymidine. Cell migration will be determined by flow cytometry as the percentage of cells. In addition, the activity of myeloperoxidase, a degradative enzyme specific to neutrophils, can be measured in lung tissue to determine this cell's migration. […]

[6] = healthy males; U.S. Pat. No. 6,159,942; cited from earlier work
various cell cultures = conditions: 12.5 to 50 mM; Marini et al 1985; cited from earlier work
spleen cells = experiment: PHA-stimulated spleen cell proliferation (tritiated thymidine); format: cell-based, mouse
Protocol: as §5

HL-60 cells [7] = experiment: Respiratory burst (superoxide anion, ferricytochrome c reduction, PMA stimulated); format: cell-based, human; conditions: for increase in rate of superoxide generation compared to HL-60 control cells: FIG. 3
Protocol: Specific cells undergo an increase in oxygen uptake when presented with appropriate stimuli, such as invading microorganisms or phorbol ester. The cells utilize this oxygen to produce a series of free radicals that kill the invading microorganism. Production of free radicals occurs via an enzyme called NADPH oxidase. Free radical production is measured spectrophotometrically by a change in color of ferricytochrome c.
The ability of cells to produce superoxide anion was measured by the reduction of ferricytochrome c via a microtiter plate (Levy et al (1990)). Fifty microliters of cells (1×10^7 cells/ml) previously incubated with retinoic acid, ribose or glucose were plated in triplicate wells of a microtiter plate. Each well contained 10 μl of 1.5 mol/L ferricytochrome c substrate and 100 μl of DPBD containing 1 mmol/L glucose. Cells were stimulated to produce superoxide anion by addition of 10 μl of 1.6 μmol/L phorbol 12-myristate 13-acetate (PMA). A kinetic reading on dual wavelengths of 540-490 nM was taken using a Molecular Devices microtiter plate reader (UVMax, Menlo Park, Calif.). Change in absorbance was measured over ten minutes. In order to ensure that reduction of ferricytochrome was the result of superoxide anion, experimental samples were incubated with 10 μl of bovine erythrocyte superoxide dismutase (7500 units/ml). […] Respiratory burst was expressed as the change in optical density/10^6 cells.

HL-60 cells [8] = experiment: Cellular proliferation of HL-60 cells (hemocytometer count); format: cell-based, human; conditions: for reduction in cell growth compared to control HL-60 cells: 96-hour incubation; for Cell Growth (10^5 cells/ml): Table 1, 96 h incubation, initial 2.5×10^5 cells/ml, RA 1.0 μmol/L, ribose 10 mmol/L; for change in cell number over the 96-hour incubation period: initial cell density 2.5×10^5
Text: as §1, §2, §3, §4

[9] = 10 mM ribose, cells differentiated with retinoic acid

Compound: O=C[C@H](O)[C@H](O)[C@H](O)CO [D-Ribose]
- tolerability [1]: well tolerated
- viability at 96 h [2]: 86.3%
- change in viability versus control (HL-60 cells [3]): slight reductions in viability
- thymus cell proliferation (thymus cells; low levels of ribose): slight, but non-significant stimulation
- thymus cell proliferation (thymus cells; ribose above 5 mM): tended to inhibit proliferation
- increase in CD11b (HL-60 cells [4]; [9]): threefold increase
- reduction in CD117 (HL-60 cells [4]; [9]): 30%
- expression of cell surface marker reactive with CD11b antibody (HL-60 cells [4]; ribose added to RA): increased further
- immature cell surface marker recognized by CD117 antibody (HL-60 cells [4]; FIG. 2, ribose added to RA): reduced
- change in ATP concentration versus HL-60 control (HL-60 cells [5]): slightly increased
- immune response parameters after diet supplementation and pathogen challenge (weanling Swiss ICR mice): benefit the immune response
- energy level (skeletal muscle ATP, power output) [6]: enhances the energy level
- effect on incorporation of tritiated thymidine / metabolic processes (various cell cultures): deeply derange metabolic processes
- spleen cell proliferation (spleen cells; low levels of ribose): slight, but non-significant stimulation
- spleen cell proliferation (spleen cells; ribose above 5 mM): tended to inhibit proliferation
- increase in rate of superoxide generation compared to HL-60 control cells (HL-60 cells [7]): no significant increase
- reduction in cell growth compared to control HL-60 cells (HL-60 cells [8]): 30%
- Cell Growth (10^5 cells/ml) (HL-60 cells [8]): 6.68 +/− 1.29 10^5 cells/ml
- change in cell number over the 96-hour incubation period (HL-60 cells [8]): nearly tripled in number

Compound: CC1=C(/C=C/C(C)=C/C=C/C(C)=C/C(=O)O)C(C)(C)CCC1 [RA, all-trans retinoic acid]
- viability at 96 h [2]: 84.5%
- viability at 1 μmol/L ([2]; Table 2, mean ± SD, n = 5): 82.6 ± 3.3%
- change in viability versus control (HL-60 cells [3]): slight reductions in viability
- expression of cell surface marker reactive with CD11b antibody (HL-60 cells [4]; ribose added to RA): high level of expression
- CD117 (%) (HL-60 cells [4]; Table 2, immature cell marker, mean ± SD, n = 5): 33.4 ± 9.5^A %
- CD11b (%) (HL-60 cells [4]; Table 2, mature cell marker, mean ± SD, n = 5): 35.7 ± 7.5^B %
- increase in rate of superoxide generation compared to HL-60 control cells (HL-60 cells [7]): 5.5 fold
- Respiratory Burst (% of RA control) (HL-60 cells [7]; Table 2, mean ± SD, n = 5): 100^B % of RA control
- reduction in cell growth compared to control HL-60 cells (HL-60 cells [8]): 30%
- Cell Growth (10^5 cells/ml) (HL-60 cells [8]): 7.01 +/− 2.14 10^5 cells/ml
- Growth (cell/ml) (HL-60 cells [8]; Table 2, mean ± SD, n = 5): 727000 ± 102000 cells/mL
- change in cell number over the 96-hour incubation period (HL-60 cells [8]): nearly tripled in number

Compound: [2H]C(=O)C[C@H](O)[C@H](O)CO [deoxy-D-Ribose, reference compound]
- effect on incorporation of tritiated thymidine / metabolic processes (various cell cultures): deeply derange metabolic processes
